Results published in US9187471B2, “Pyrido [4,3-b] indole and pyrido [3,4-b] indole derivatives and methods of use” (Medivation Technologies, Inc., priority 2010, dated 2015).

Legend:
[1] = target: T1, human recombinant histamine H1 receptor (Homo sapiens, UniProt P35367); assay: Histamine H1 radioligand binding ([3H]Pyrilamine); details: read-out: Histamine H1 Binding (1 μM), percent inhibition of specific binding; compound at 1 μM; 1.2 nM [3H]Pyrilamine
T1 construct: expressed in transfected cells; host or cells: CHO-K1
T1 sequence (P35367 whole entry): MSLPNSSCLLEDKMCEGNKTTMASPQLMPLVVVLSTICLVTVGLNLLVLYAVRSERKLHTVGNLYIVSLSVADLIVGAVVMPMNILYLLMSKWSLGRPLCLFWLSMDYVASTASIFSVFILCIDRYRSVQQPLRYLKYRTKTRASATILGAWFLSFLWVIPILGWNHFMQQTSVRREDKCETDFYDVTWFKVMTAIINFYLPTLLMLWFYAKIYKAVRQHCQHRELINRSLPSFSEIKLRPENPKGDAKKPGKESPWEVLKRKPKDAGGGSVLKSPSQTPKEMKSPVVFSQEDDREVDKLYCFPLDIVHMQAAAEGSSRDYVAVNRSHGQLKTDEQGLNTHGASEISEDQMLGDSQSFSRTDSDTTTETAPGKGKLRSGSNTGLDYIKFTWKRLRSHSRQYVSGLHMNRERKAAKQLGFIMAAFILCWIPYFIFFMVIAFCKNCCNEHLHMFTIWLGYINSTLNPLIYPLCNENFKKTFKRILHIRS
Method: To evaluate in radioligand binding assays the activity of compounds of the invention, human recombinant histamine H1 receptor expressed in Chinese hamster ovary (CHO) K1 cells (De Backer, M. et al, Biochem. Biophys. Res. Comm. 197(3):1601, 1993) in a modified Tris-HCl buffer (50 mM Tris-HCl, pH 7.4, 2 mM MgCl2, 100 mM NaCl, 250 mM Sucrose) was used. […] Non-specific binding was estimated in the presence of 1 μM Pyrilamine. Receptor proteins were filtered and washed, the filters were then counted to determine [^3H]Pyrilamine specifically bound. […] Biochemical assay results are presented as the percent inhibition of specific binding in Table 2.

[2] = target: T2, rat adrenergic α1A receptor (Rattus norvegicus, UniProt P43140); assay: Adrenergic α1A radioligand binding ([3H]Prazosin); details: read-out: Adrenergic (0.1 μM) a1A, percent inhibition of specific binding; compound at 0.1 μM; 0.25 nM [3H]Prazosin
T2 construct: rat adrenergic α1A receptor obtained from Wistar Rat submaxillary glands; from tissue; host or cells: Wistar rat submaxillary glands
T2 sequence (P43140 1-466): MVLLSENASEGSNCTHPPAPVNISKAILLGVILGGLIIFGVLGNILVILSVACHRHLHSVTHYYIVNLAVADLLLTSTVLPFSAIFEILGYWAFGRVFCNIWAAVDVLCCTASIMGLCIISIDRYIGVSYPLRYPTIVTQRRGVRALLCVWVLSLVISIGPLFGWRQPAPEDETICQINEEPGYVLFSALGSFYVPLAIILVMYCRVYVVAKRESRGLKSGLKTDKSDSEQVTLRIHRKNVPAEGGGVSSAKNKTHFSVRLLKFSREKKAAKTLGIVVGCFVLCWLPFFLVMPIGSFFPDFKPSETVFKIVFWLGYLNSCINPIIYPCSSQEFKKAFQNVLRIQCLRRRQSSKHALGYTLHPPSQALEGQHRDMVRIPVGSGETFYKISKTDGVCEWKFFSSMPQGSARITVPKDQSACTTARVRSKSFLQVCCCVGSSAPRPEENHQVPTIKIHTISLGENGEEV
Method: To evaluate in radioligand binding assays the activity of compounds of the invention, rat adrenergic α1A receptor obtained from Wistar Rat submaxillary glands (Michel, A. et al, Br. J. Pharmacol. 98:883, 1989) in a modified Tris-HCl buffer (50 mM Tris-HCl buffer, pH 7.4, 0.5 mM EDTA) was used. Compounds of the invention were incubated with 0.25 nM [^3H]Prazosin for 60 min at 25° C. Non-specific binding was estimated in the presence of 10 μM phentolamine Receptor proteins were filtered and washed, the filters were then counted to determine [^3H]Prazosin specifically bound. […] Compounds of the invention were tested in this biochemical assay and percent inhibition of specific binding was determined.

[3] = target: T3, human recombinant adrenergic α2C receptor (Homo sapiens, UniProt P18825); assay: Adrenergic α2C radioligand binding ([3H]MK-912); details: read-out: Adrenergic (0.1 μM) a2C, percent inhibition of specific binding; compound at 0.1 μM; 1 nM [3H]MK-912
T3 construct: expressed in transfected cells; host or cells: insect Sf9 cells
T3 sequence (P18825 1-462): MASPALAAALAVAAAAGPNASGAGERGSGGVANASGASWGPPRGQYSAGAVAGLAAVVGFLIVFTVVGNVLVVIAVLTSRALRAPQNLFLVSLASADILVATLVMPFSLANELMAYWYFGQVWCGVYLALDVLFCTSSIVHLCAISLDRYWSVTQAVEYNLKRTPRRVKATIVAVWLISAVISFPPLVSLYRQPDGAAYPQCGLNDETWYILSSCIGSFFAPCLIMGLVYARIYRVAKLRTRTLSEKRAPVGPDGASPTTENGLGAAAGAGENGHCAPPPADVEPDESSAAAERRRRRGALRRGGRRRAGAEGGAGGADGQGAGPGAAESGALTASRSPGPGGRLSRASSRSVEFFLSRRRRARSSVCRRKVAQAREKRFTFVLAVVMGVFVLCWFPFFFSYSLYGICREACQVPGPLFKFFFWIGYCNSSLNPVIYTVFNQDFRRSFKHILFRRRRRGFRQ
Method: To evaluate in radioligand binding assays the activity of compounds of the invention, human recombinant adrenergic α2C receptor expressed in insect Sf9 cells (Uhlen, S. et al, J. Pharmacol. Exp. Ther. 271:1558, 1994) in a modified Tris-HCl buffer (50 mM Tris-HCl, pH 7.4, 12.5 mM MgCl2, 2 mM EDTA) was used. Compounds of the invention were incubated with 1 nM [^3H]MK-912 for 60 min at 25° C. Non-specific binding was estimated in the presence of 10 μM WB-4101. Receptor proteins were filtered and washed, the filters were then counted to determine [^3H]MK-912 specifically bound. […] Compounds of the invention were tested in this biochemical assay and percent inhibition of specific binding was determined.

[4] = target: T4, human recombinant dopamine D2L receptor (Homo sapiens, UniProt P14416); assay: Dopamine D2L radioligand binding ([3H]Spiperone); details: read-out: Dopamine D2L (1 μM), percent inhibition of specific binding; compound at 1 μM; 0.16 nM [3H]Spiperone
T4 construct: expressed in transfected cells; host or cells: CHO
T4 sequence (P14416 whole entry): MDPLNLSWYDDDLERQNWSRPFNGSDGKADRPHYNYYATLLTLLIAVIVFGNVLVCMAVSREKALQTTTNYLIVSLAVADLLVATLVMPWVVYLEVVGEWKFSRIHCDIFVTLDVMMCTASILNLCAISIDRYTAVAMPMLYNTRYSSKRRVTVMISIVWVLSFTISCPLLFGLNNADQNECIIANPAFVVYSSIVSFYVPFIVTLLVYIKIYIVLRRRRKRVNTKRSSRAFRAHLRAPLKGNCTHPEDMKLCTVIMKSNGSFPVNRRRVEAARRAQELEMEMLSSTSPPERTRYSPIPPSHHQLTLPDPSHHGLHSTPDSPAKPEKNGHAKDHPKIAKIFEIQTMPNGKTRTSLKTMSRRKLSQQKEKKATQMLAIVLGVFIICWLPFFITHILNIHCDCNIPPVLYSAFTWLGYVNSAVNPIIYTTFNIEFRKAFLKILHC
Method: Non-specific binding was estimated in the presence of 10 μM Haloperidol. Receptor proteins were filtered and washed, the filters were then counted to determine [^3H]Spiperone specifically bound.

[5] = target: T5, human recombinant serotonin (5-Hydroxytryptamine) 5-HT2A receptor (Homo sapiens, UniProt P28223); assay: Serotonin 5-HT2A radioligand binding ([3H]Ketanserin); details: compound at 0.1 μM; read-out: Inhibition of ligand binding, Serotonin 5-HT2A (percent inhibition of specific binding)
T5 construct: expressed in transfected cells; host or cells: CHO-K1
T5 sequence (P28223 whole entry): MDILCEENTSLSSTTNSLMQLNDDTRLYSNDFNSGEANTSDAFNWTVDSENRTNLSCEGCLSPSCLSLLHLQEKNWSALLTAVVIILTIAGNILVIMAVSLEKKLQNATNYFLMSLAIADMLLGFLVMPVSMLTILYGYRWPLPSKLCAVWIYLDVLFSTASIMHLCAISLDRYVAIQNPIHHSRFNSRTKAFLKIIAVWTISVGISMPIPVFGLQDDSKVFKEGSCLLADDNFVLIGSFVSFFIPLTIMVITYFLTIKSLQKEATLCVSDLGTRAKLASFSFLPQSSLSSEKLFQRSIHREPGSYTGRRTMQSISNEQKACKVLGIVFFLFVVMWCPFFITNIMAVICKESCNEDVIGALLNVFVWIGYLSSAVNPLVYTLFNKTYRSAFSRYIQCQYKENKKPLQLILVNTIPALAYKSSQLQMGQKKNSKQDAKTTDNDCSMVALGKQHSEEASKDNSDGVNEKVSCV
Method: Compounds of the invention were incubated with 0.5 nM [^3H]Ketanserin for 60 min at 25° C. Non-specific binding was estimated in the presence of 1 μM Mianserin. Receptor proteins were filtered and washed, the filters were then counted to determine [^3H]Ketanserin specifically bound.

[6] = target: T6, human recombinant serotonin (5-Hydroxytryptamine) 5-HT2C receptor (Homo sapiens, UniProt P28335); assay: Serotonin 5-HT2C radioligand binding ([3H]Mesulergine); details: compound at 0.1 μM; read-out: Inhibition of ligand binding, Serotonin 5-HT2C (percent inhibition of specific binding)
T6 construct: expressed in transfected cells; host or cells: CHO-K1
T6 sequence (P28335 33-458): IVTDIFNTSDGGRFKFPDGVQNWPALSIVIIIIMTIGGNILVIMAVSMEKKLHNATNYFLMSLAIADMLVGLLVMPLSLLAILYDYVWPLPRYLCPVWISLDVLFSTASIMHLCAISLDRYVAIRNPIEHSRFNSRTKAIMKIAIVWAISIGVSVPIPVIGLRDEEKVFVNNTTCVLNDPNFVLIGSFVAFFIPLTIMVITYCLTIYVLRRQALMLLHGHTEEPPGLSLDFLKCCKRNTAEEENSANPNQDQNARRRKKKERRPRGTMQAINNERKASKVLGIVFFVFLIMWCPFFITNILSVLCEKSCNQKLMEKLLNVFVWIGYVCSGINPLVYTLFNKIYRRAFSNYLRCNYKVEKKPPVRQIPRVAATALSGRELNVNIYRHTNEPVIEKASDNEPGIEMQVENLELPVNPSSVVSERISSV
Method: Compounds of the invention were incubated with 1 nM [^3H]Mesulergine for 60 min at 25° C. Non-specific binding was estimated in the presence of 1 μM Mianserin. Receptor proteins were filtered and washed, the filters were then counted to determine [^3H]Mesulergine specifically bound.

[7] = target: T7, human recombinant serotonin (5-Hydroxytryptamine) 5-HT6 receptor (Homo sapiens, UniProt P50406); assay: Serotonin 5-HT6 radioligand binding ([3H]LSD); details: compound at 0.1 μM; read-out: Inhibition of ligand binding, Serotonin 5-HT6 (percent inhibition of specific binding)
T7 construct: expressed in transfected cells; host or cells: HeLa
T7 sequence (P50406 whole entry): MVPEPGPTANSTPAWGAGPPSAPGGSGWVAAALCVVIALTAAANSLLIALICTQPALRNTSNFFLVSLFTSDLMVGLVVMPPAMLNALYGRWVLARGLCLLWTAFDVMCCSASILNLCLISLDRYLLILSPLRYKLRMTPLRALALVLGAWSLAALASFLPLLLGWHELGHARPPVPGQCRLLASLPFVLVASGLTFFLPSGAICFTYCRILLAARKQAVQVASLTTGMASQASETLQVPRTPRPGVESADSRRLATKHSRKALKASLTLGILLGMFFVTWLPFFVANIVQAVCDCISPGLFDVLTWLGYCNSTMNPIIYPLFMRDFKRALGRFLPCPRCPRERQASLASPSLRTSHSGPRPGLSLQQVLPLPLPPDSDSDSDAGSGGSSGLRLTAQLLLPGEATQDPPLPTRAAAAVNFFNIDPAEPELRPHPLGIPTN
Description: Receptor proteins were filtered and washed, the filters were then counted to determine [3H]LSD specifically bound.

[8] = target: T8, human recombinant serotonin (5-Hydroxytryptamine) 5-HT7 receptor (Homo sapiens, UniProt P34969); assay: Serotonin 5-HT7 radioligand binding ([3H]LSD); details: compound at 0.1 μM; read-out: Inhibition of ligand binding, Serotonin 5-HT7 (percent inhibition of specific binding)
T8 construct: expressed in transfected cells; host or cells: CHO
T8 sequence (P34969 whole entry): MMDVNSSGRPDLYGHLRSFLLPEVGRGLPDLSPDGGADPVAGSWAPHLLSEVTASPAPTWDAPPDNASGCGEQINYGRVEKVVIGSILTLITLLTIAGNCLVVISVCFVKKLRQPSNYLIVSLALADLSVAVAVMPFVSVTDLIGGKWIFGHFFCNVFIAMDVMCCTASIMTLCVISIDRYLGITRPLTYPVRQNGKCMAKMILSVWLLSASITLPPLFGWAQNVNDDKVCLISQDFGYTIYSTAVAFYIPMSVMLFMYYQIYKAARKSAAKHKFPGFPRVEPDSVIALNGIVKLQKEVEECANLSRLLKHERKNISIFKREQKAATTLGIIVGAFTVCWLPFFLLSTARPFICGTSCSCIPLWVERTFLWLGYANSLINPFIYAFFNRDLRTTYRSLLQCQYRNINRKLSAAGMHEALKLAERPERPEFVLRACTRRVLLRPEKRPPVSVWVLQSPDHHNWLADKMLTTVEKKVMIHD
Method: Lysergic acid diethylamide (LSD) for 120 min. at 25° C. […] Receptor proteins were filtered and washed, the filters were then counted to determine [^3H]LSD specifically bound.

Compound | inhibition at 1 µM [1] [%] | inhibition at 0.1 µM [2] [%] | inhibition at 0.1 µM [3] [%] | inhibition at 1 µM [4] [%] | inhibition at 0.1 µM [5] [%] | inhibition at 0.1 µM [6] [%] | inhibition at 0.1 µM [7] [%] | inhibition at 0.1 µM [8] [%]
Cc1ccc2c(c1)c1c(n2-c2ccsc2)CCN(C)C1 [Compound 14, 2,8-dimethyl-5-thiophen-3-yl-2,3,4,5-tetrahydro-1H-pyrido[4,3-b]indole] | 86 | 30 | 4 | 50 | 97 | 95 | 82 | 61
Cc1ccc2c(c1)c1c(n2-c2ccccc2-c2ccncc2)CCN(C)C1 [Compound 5, 2,8-dimethyl-5-(2-pyridin-4-yl-phenyl)-2,3,4,5-tetrahydro-1H-pyrido[4,3-b]indole] | 38 | 24 | 11 | 2 | 83 | 81 | 26 | 64
Cc1ccc2c(c1)c1c(n2-c2ccccc2-c2ccc(F)cc2)CCN(C)C1 [Compound 10, 5-(4′-fluorobiphenyl-2-yl)-2,8-dimethyl-2,3,4,5-tetrahydro-1H-pyrido[4,3-b]indole] | 82 | 59 | 67 | 26 | 93 | 94 | 57 | 73
Cc1ccc2c(c1)c1c(n2-c2cncn2C)CCN(C)C1 [Compound 18, 2,8-dimethyl-5-(3-methyl-3H-imidazol-4-yl)-2,3,4,5-tetrahydro-1H-pyrido[4,3-b]indole] | 79 |  |  | 13 | 14 | 8 | 2 | 22
Cc1ccc2c(c1)c1c(n2-c2ccccc2)CCN(C)C1 [Compound 1, 2,8-dimethyl-5-phenyl-2,3,4,5-tetrahydro-1H-pyrido[4,3-b]indole] | 70 |  |  | 67 | 100 | 88 | 63 | 21
Cc1ccc2c(c1)c1c(n2-c2ccc3ccccc3c2)CCN(C)C1 [Compound 12, 2,8-dimethyl-5-naphthalen-2-yl-2,3,4,5-tetrahydro-1H-pyrido[4,3-b]indole] | 24 |  |  | 84 | 94 | 93 | 63 | 3
Cc1ccc2c(c1)c1c(n2-c2ccccc2-c2ccccc2)CCN(C)C1 [Compound 8, 5-biphenyl-2-yl-2,8-dimethyl-2,3,4,5-tetrahydro-1H-pyrido[4,3-b]indole] | 92 |  |  | 30 | 99 | 97 | 52 | 65
CN1CCc2c(c3cc(Cl)ccc3n2-c2cscc2-c2ccccc2)C1 [Compound 26] | 91 |  |  | 47 | 86 | 96 | 61 | 95
CN1CCc2c(c3cc(Cl)ccc3n2-c2cscc2-c2ccncc2)C1 [Compound 28] | 46 |  |  | 20 | 68 | 76 | 45 | 95
CN1CCc2c(c3cc(Cl)ccc3n2-c2ccsc2)C1 [Compound 29, 8-chloro-2-methyl-5-thiophen-3-yl-2,3,4,5-tetrahydro-1H-pyrido[4,3-b]indole] | 90 |  |  | 63 | 101 | 98 | 101 | 63
Cc1ccc2c(c1)c1c(n2-c2cscc2-c2ccncc2)CCN(C)C1 [Compound 20, 2,8-dimethyl-5-(4-pyridin-4-yl-thiophen-3-yl)-2,3,4,5-tetrahydro-1H-pyrido[4,3-b]indole] | 42 |  |  | 9 | 78 | 85 | 18 | 97
